Converted amounts (≈) assume the structure as drawn. Where two headings read alike, the source gives them in different places.
What was measured:
Type in all cases: cell-based
Klebsiella aerogenes = assay: MIC by serial dilution in nutrient agar
Citrobacter freundii = assay: MIC by serial dilution in nutrient agar
Serratia marcescens = assay: MIC by serial dilution in nutrient agar
P. morganii = assay: MIC by serial dilution in nutrient agar
E. cloacae = assay: MIC by serial dilution in nutrient agar; settings: Enterobacter cloacae
P. rettgeri = assay: MIC by serial dilution in nutrient agar; settings: Providencia rettgeri
Streptococcus faecalis = assay: MIC by serial dilution in nutrient agar
P. vulgaris = assay: MIC by serial dilution in nutrient agar; settings: Proteus vulgaris
Enterobacter aerogenes = assay: MIC by serial dilution in nutrient agar; settings: Klebsiella aerogenes
Proteus mirabilis = assay: MIC by serial dilution in nutrient agar
E. coli = assay: MIC by serial dilution in nutrient agar; settings: Escherichia coli
[1] = test system: a range of Gram-negative bacteria and Strep. Faecalis; assay: Microbiological evaluation, comparison of MIC values of the two compounds (Table I); settings: from MIC values of Table I
[2] = Klebsiella aerogenes strain B195R+
[3] = Klebsiella aerogenes strain E70
[4] = Klebsiella aerogenes strain I229
[5] = Klebsiella aerogenes strain I281
[6] = Klebsiella aerogenes strain T312
[7] = Citrobacter freundii strain T745
[8] = Citrobacter freundii strain W18
[9] = Serratia marcescens strain US30
[10] = Serratia marcescens strain US39R+
[11] = Morganella morganii, P. morganii strain DU10, read-out: MIC
[12] = Enterococcus faecalis, Streptococcus faecalis strain Weaver, read-out: MIC
[13] = Streptococcus faecalis strain A
[14] = Streptococcus faecalis strain Page
[15] = Enterobacter aerogenes strain T730
[16] = Enterobacter aerogenes strain T755
[17] = Proteus mirabilis strain H-WF, read-out: MIC
[18] = E. coli strain JT1, read-out: MIC
[19] = E. coli strain JT39R+, read-out: MIC
[20] = E. coli strain JT56R+, read-out: MIC
[21] = E. coli strain JT68R+, read-out: MIC
[22] = E. coli strain JT103, read-out: MIC
[23] = E. coli strain JT147, read-out: MIC
[24] = E. coli strain JT454C+, read-out: MIC
[25] = E. coli strain JT460C+, read-out: MIC

SMILES | MIC (Klebsiella aerogenes; [2]) | MIC (Klebsiella aerogenes; [3]) | MIC (Klebsiella aerogenes; [4]) | MIC (Klebsiella aerogenes; [5]) | MIC (Klebsiella aerogenes; [6]) | MIC (Citrobacter freundii; [7]) | MIC (Citrobacter freundii; [8]) | MIC (Serratia marcescens; Serratia marcescens strain US1) | MIC (Serratia marcescens; [9]) | MIC (Serratia marcescens; [10]) | MIC (P. morganii; [11]) | MIC (P. morganii; P. morganii strain DU718) | MIC (E. cloacae; E. cloacae strain T629) | MIC (E. cloacae; E. cloacae strain T763) | MIC (P. rettgeri; P. rettgeri strain B) | MIC (P. rettgeri; P. rettgeri strain I) | MIC (P. rettgeri; P. rettgeri strain R110) | MIC (Streptococcus faecalis; [12]) | MIC (Streptococcus faecalis; [13]) | MIC (Streptococcus faecalis; [14]) | other results
COC1(NC(=O)C(C(=O)O)c2ccccc2)C(=O)N2C(C(=O)O)C(C)(C)SC21 (stereo not drawn) [6-methoxy carbenicillin, 6α-methoxy-6β-(2-carboxyphenylacetamido)penicillanic acid, reference compound] | 25 µg/mL (≈ 61.2 µM) | 5 µg/mL (≈ 12.2 µM) | 12.5 µg/mL (≈ 30.6 µM) | 12.5 µg/mL (≈ 30.6 µM) | 12.5 µg/mL (≈ 30.6 µM) | 5 µg/mL (≈ 12.2 µM) | 12.5 µg/mL (≈ 30.6 µM) | 5 µg/mL (≈ 12.2 µM) | 12.5 µg/mL (≈ 30.6 µM) | 5 µg/mL (≈ 12.2 µM) | 5 µg/mL (≈ 12.2 µM) | 5.0 µg/mL (≈ 12.2 µM) | 5 µg/mL (≈ 12.2 µM) | 5 µg/mL (≈ 12.2 µM) | 5 µg/mL (≈ 12.2 µM) | 5 µg/mL (≈ 12.2 µM) | 5 µg/mL (≈ 12.2 µM) | > 500 µg/mL | > 500 µg/mL | > 500 µg/mL | MIC (P. vulgaris; P. vulgaris strain C): < 0.5 µg/mL; MIC (P. vulgaris; P. vulgaris strain I): 5 µg/mL (≈ 12.2 µM); MIC (P. vulgaris; P. vulgaris strain K): 12.5 µg/mL (≈ 30.6 µM); MIC (Enterobacter aerogenes; [15]): 5 µg/mL (≈ 12.2 µM); MIC (Enterobacter aerogenes; [16]): 5 µg/mL (≈ 12.2 µM); MIC (Proteus mirabilis; Proteus mirabilis strain BS66): 5.0 µg/mL (≈ 12.2 µM); MIC (Proteus mirabilis; Proteus mirabilis strain CT13): 5.0 µg/mL (≈ 12.2 µM); MIC (Proteus mirabilis; [17]): 5 µg/mL (≈ 12.2 µM); MIC (Proteus mirabilis; Proteus mirabilis strain T251): 5.0 µg/mL (≈ 12.2 µM); MIC (E. coli; [18]): 5 µg/mL (≈ 12.2 µM); MIC (E. coli; E. coli strain JT2OR+): 5 µg/mL (≈ 12.2 µM); MIC (E. coli; [19]): 12.5 µg/mL (≈ 30.6 µM); MIC (E. coli; [20]): 12.5 µg/mL (≈ 30.6 µM); MIC (E. coli; [21]): 12.5 µg/mL (≈ 30.6 µM); MIC (E. coli; [22]): 5 µg/mL (≈ 12.2 µM); MIC (E. coli; [23]): 12.5 µg/mL (≈ 30.6 µM); MIC (E. coli; [24]): 5 µg/mL (≈ 12.2 µM); MIC (E. coli; [25]): 12.5 µg/mL (≈ 30.6 µM)
COC1(NC(=O)C(C(=O)O)c2ccsc2)C(=O)N2C(C(=O)O)C(C)(C)SC21 [6-methoxy ticarcillin, 6-β-(D,L-2-Carboxy-2-thien-3'-ylacetamido)-6-α-methoxypenicillanic acid] | 5 µg/mL (≈ 12.1 µM) | 2.5 µg/mL (≈ 6.03 µM) | 5 µg/mL (≈ 12.1 µM) | 5 µg/mL (≈ 12.1 µM) | 5 µg/mL (≈ 12.1 µM) | 2.5 µg/mL (≈ 6.03 µM) | 2.5 µg/mL (≈ 6.03 µM) | 2.5 µg/mL (≈ 6.03 µM) | 5 µg/mL (≈ 12.1 µM) | 2.5 µg/mL (≈ 6.03 µM) | 2.5 µg/mL (≈ 6.03 µM) | 2.5 µg/mL (≈ 6.03 µM) | 2.5 µg/mL (≈ 6.03 µM) | 1.2 µg/mL (≈ 2.9 µM) | 2.5 µg/mL (≈ 6.03 µM) | 5 µg/mL (≈ 12.1 µM) | 2.5 µg/mL (≈ 6.03 µM) | > 500 µg/mL | > 500 µg/mL | > 500 µg/mL | MIC (P. vulgaris; P. vulgaris strain C): < 0.5 µg/mL; MIC (P. vulgaris; P. vulgaris strain I): 2.5 µg/mL (≈ 6.03 µM); MIC (P. vulgaris; P. vulgaris strain K): 5 µg/mL (≈ 12.1 µM); MIC (Enterobacter aerogenes; [15]): 1.2 µg/mL (≈ 2.9 µM); MIC (Enterobacter aerogenes; [16]): 2.5 µg/mL (≈ 6.03 µM); MIC (Proteus mirabilis; Proteus mirabilis strain BS66): 2.5 µg/mL (≈ 6.03 µM); MIC (Proteus mirabilis; Proteus mirabilis strain CT13): 2.5 µg/mL (≈ 6.03 µM); MIC (Proteus mirabilis; [17]): 2.5 µg/mL (≈ 6.03 µM); MIC (Proteus mirabilis; Proteus mirabilis strain T251): 2.5 µg/mL (≈ 6.03 µM); activity relative to the corresponding phenyl compound (6-methoxy carbenicillin) [1]: consistently two-fold more active; MIC (E. coli; [18]): 2.5 µg/mL (≈ 6.03 µM); MIC (E. coli; E. coli strain JT2OR+): 5 µg/mL (≈ 12.1 µM); MIC (E. coli; [19]): 5 µg/mL (≈ 12.1 µM); MIC (E. coli; [20]): 5 µg/mL (≈ 12.1 µM); MIC (E. coli; [21]): 5 µg/mL (≈ 12.1 µM); MIC (E. coli; [22]): 2.5 µg/mL (≈ 6.03 µM); MIC (E. coli; [23]): 5 µg/mL (≈ 12.1 µM); MIC (E. coli; [24]): 5 µg/mL (≈ 12.1 µM); MIC (E. coli; [25]): 5 µg/mL (≈ 12.1 µM)

Source: US4048320A, “Penicillins” (Beecham Group Limited, priority 1975, dated 1977)
